# Measurements from ChEMBL document CHEMBL4049425, “Fragment-Based, Structure-Enabled Discovery of Novel Pyridones and Pyridone Macrocycles as Potent Bromodomain and Extra-Terminal Domain (BET) Family Bromodomain Inhibitors” (J Med Chem, 2017).
# Key:
# [1] = system: Mus musculus; test: Toxicity in SCID-Beige mouse xenografted with human OPM2 cells assessed as weight loss at 1 mg/kg, po qd for 21 days (reference value: 2%); format: organism-based; conditions: in vivo, 504 h
# [2] = system: Liver; test: Unbound intrinsic clearance in human liver microsomes; format: ADME, microsome
# [3] = system: Rattus norvegicus; test: Unbound clearance in rat at 1 mg/kg, iv or 1 mg/kg, po; format: ADME, organism-based; conditions: in vivo
# [4] = system: Mus musculus; test: Unbound clearance in mouse at 1 mg/kg, iv or 1 mg/kg, po; format: ADME, organism-based; conditions: in vivo
# [5] = system: Mus musculus; test: Toxicity in SCID-Beige mouse xenografted with human OPM2 cells assessed as weight loss at 2 mg/kg, po qd for 21 days (reference value: 2%); format: organism-based; conditions: in vivo, 504 h
# [6] = system: MX1; test: Antiproliferative activity against human MX1 cells after 72 hrs by Cell Titer Glo assay; format: functional, cell-based; conditions: MX1, 72 h
# [7] = system: OPM-2; test: Antitumor activity against human OPM2 cells xenografted in SCID-Beige mouse assessed as tumor growth inhibition compound administered po qd for 21 days; format: functional, organism-based
# [8] = Oral bioavailability in mouse at 1 mg/kg; format: ADME, organism-based; conditions: in vivo
# [9] = target: T1, Bromodomain-containing protein 4 (Homo sapiens, UniProt O60885); test: Inhibition of human N-terminal His6-tagged BRD4 BD1-BD2 (57 to 550 residues) expressed in EScherichia coli BL21(DE3) after 1 hr by Alexa-647-conjugated probe based TR-FRET assay
# [10] = system: Mus musculus; test: Unbound AUC in mouse at 1 mg/kg, po; format: ADME, organism-based; conditions: in vivo
# [11] = system: Plasma; test: Free plasma concentration required to reach in vitro EC50 for human OPM2 cells in SCID-Beige mouse xenografted with human OPM2 cells at 1 to 2 mg/kg, po
# [12] = Fraction unbound in mouse plasma at 1 uM after 4 hrs by LC-MS/MS analysis; format: ADME, cell-free
# [13] = Permeability of the compound by PAMPA; format: physicochemical; conditions: read-out: permeability
# [14] = system: OPM-2; test: Antitumor activity against human OPM2 cells xenografted in SCID-Beige mouse assessed as tumor growth inhibition at 2 mg/kg, po qd for 21 days relative to control; format: functional; conditions: OPM-2, po, 504 h, read-out: TGI
# [15] = system: Mus musculus; test: Fraction absorbed in portal vein of mouse at 1 mg/kg, iv or 1 mg/kg, po; format: ADME, organism-based; conditions: in vivo
# [16] = system: Mus musculus; test: Time required to reach in vitro EC50 for human OPM2 cells in SCID-Beige mouse xenografted with human OPM2 cells at 2 mg/kg, po
# [17] = Fraction unbound in SCID-Beige mouse plasma xenografted with human OPM2 cells at 1 to 2 mg/kg, po; format: ADME, organism-based
# [18] = system: Rattus norvegicus; test: Fraction absorbed in portal vein of rat at 1 mg/kg, iv or 1 mg/kg, po; format: ADME, organism-based; conditions: in vivo
# [19] = system: Liver; test: Unbound intrinsic clearance in rat liver microsomes; format: ADME, microsome
# [20] = target: T1, Bromodomain-containing protein 4; test: Inhibition of BRD4 in human NCI-H1299 cells after 24 hrs by Bright-Glo luciferase reporter gene assay; format: cell-based
# [21] = system: Liver; test: Unbound intrinsic clearance in mouse liver microsomes; format: ADME, microsome
# [22] = Fraction unbound in rat plasma; format: ADME, cell-free
# [23] = Lipophilicity, log D of the compound; format: physicochemical; conditions: octanol/water
# [24] = system: OPM-2; test: Antitumor activity against human OPM2 cells xenografted in SCID-Beige mouse assessed as tumor growth inhibition at 1 mg/kg, po qd for 21 days relative to control; format: functional; conditions: OPM-2, po, 504 h, read-out: TGI
# [25] = system: OPM-2; test: Antiproliferative activity against human OPM2 cells; format: functional, cell-based
# [26] = Oral bioavailability in rat at 1 mg/kg; format: ADME, organism-based; conditions: in vivo
# [27] = system: Rattus norvegicus; test: Unbound AUC in rat at 1 mg/kg, po; format: ADME, organism-based; conditions: in vivo
structure (smiles),measurement,setting,value
CCS(=O)(=O)c1cnc2c(c1)-c1cn(C)c(=O)cc1OCCCCc1cc(Cl)ccc1O2,Activity,[1],4%
same,CL free,[2],58.3 mL/min/kg
same,CL free,[3],233 mL/min/kg
same,CL free,[4],140 mL/min/kg
same,Activity,[5],4%
same,EC50,[6],33 nM
same,TGI,[7],Dose-dependent effect
same,bioavailability,[8],84%
same,Ki,[9],8.9 nM
same,fAUC,[10],100 ng·h/mL
same,Cp(f),[11],0.3 µM
same,"fraction unbound at 4 h, 1 µM",[12],0.04
same,Papp,[13],15 ×10⁻⁶ cm/s
same,inhibition in vivo at 2 mg/kg,[14],85%
same,FaFg,[15],0.9
same,Time,[16],>12 h
same,fraction unbound,[17],0.04
same,FaFg,[18],1
same,CL free,[19],73.3 mL/min/kg
same,EC50,[20],34 nM
same,CL free,[21],267 mL/min/kg
same,fraction unbound,[22],0.09
same,logD,[23],2.8 to 4.3
same,inhibition in vivo at 1 mg/kg,[24],73%
same,EC50,[25],12 nM
same,bioavailability,[26],95%
same,fAUC,[27],69 ng·h/mL
